# Values quoted from earlier work as cited in article PMC11477967, “Review of the Structural Characteristics and Biological Activities of Tricholoma Secondary Metabolites (2018–2023)” (Molecules, 2024).
# How the values were obtained:
# bacteria = tested on: bacteria; design: method as in PMID 32534274, PMID 26186257, PMID 34604687, PMID 28794307; conditions: Table 1 summary
# MCF-7 [1] = tested on: MCF-7
# SMMC-7721 = tested on: SMMC-7721; design: method as in PMID 29758519, PMID 32534274
# SW480 = tested on: SW480; design: method as in PMID 29758519, PMID 32534274
# human tumor cell lines = tested on: human tumor cell lines; design: method as in PMID 29758519, PMID 32534274, PMID 26186257; conditions: Table 1 summary
# [2] = tested on: nitric oxide (NO) production in lipopolysaccharide (LPS)-induced RAW264.7 macrophages; conditions: for IC50: LPS-induced RAW264.7 macrophages; for Bioactivities: Anti-inflammatory activity: Table 1 summary
# A549 = tested on: A549; design: method as in doi:10.1177/1934578X1801300901; conditions: said to surpass shikonin
# WISH = tested on: WISH; design: method as in doi:10.1177/1934578X1801300901
# MCF-7 [3] = tested on: MCF-7; design: method as in doi:10.1177/1934578X1801300901
# human cancer cell lines = conditions: for Bioactivities: Cytotoxic against human cancer cell lines: Table 1 summary
# Caki-1 [4] = tested on: Caki-1; design: method as in doi:10.1177/1934578X1801300901
# Hep G2 [5] = tested on: Hep G2; design: method as in doi:10.1177/1934578X1801300901; conditions: said to surpass shikonin
# A-549 [6] = tested on: A-549
# MCF-7 [7] = tested on: MCF-7; design: method as in PMID 37175274
# Caki-1 [8] = tested on: Caki-1; design: method as in PMID 37175274
# Hep G2 [9] = tested on: Hep G2; design: method as in PMID 37175274
# A-549 [10] = tested on: A-549; design: method as in PMID 37175274
smiles,measurement,setting,value
"CCC1(O)OCC(N2C(=O)CCC2OC)C2=C1C(OC)CC2OC(=O)CC(C)C (stereo not drawn) [Compound 85, pardinumone B]",Bioactivities: Antibacterial activity,bacteria,Antibacterial activity
"COC12CCC3(C)C(CCC3C(C)C=CC(C)C(C)C)C1=CC(=O)O2 (stereo not drawn) [Compound 42, volemolide]",IC50,MCF-7 [1],< 40 µM
same,IC50,HL-60,< 40 µM
same,IC50,SMMC-7721,< 40 µM
same,IC50,SW480,< 40 µM
same,Bioactivities: Anti-cancer activity,human tumor cell lines,Anti-cancer activity
"CC(C)[C@@H](C)/C=C/[C@@H](C)[C@@H](CC(=O)O)[C@@]1(C)CCC2=C(C1=O)[C@H](O)[C@@H]1O[C@@]13C[C@@H](O)CC[C@]23C [Compound 46, tricholosterol A]",IC50,[2],27.6 µM
same,Bioactivities: Anti-inflammatory activity,[2],Anti-inflammatory activity
"CC(C)[C@@H](C)/C=C/[C@@H](C)[C@H]1CC[C@H]2C3=C(CC[C@]12C)[C@@]1(C)CC[C@H](O)CC1=CC3=O [Compound 30, 3β-hydroxyl-(22E,24R)-ergosta-5,8,22-trien-7-one]",IC50,HL-60,< 10 µM
same,Bioactivities: Anti-cancer activity,human tumor cell lines,Anti-cancer activity
"C=C(CCC(C)C1CCC2(C)C3=C(CC(O)C12C)C1(C)CCC(OC(=O)CC(=O)OC)C(C)(C)C1CC3)C(C)C(=O)O [Compound 16, (25S)-(+)-12α-hydroxy-3α-methylcarboxyacetate-24-methyllanosta-8,24(31)-diene-26-oic acid]",Bioactivities: Anti-cancer activity,human tumor cell lines,Anti-cancer activity
"CC(C)[C@@H](C)/C=C/[C@@H](C)[C@H]1CC(=O)[C@H]2C3=C(CC[C@@]21C)[C@@]1(C)CC[C@H](O)CC1=CC3=O [Compound 29, 3β-hydroxyl-(22E,24R)-ergosta-5,8,22-trien-7,15-dione]",IC50,HL-60,< 10 µM
same,Bioactivities: Anti-cancer activity,human tumor cell lines,Anti-cancer activity
"COC(=O)C(NC(=O)CC(C)(O)CC(=O)OC1C(O)CC2(C)C3=C(CCC2C1(C)C)C1(C)CCC(C(C)CCC(O)C(C)(C)O)C1(C)C(O)C3)C(OC(C)=O)c1ccccc1 (stereo not drawn) [Compound 6, pardinol F]",Bioactivities: Anti-inflammatory activity,[2],Anti-inflammatory activity
same,Bioactivities: Anti-cancer activity,human tumor cell lines,Anti-cancer activity
"C=C1CCC(CCC2CCC3(OC2)OC2(O)CCC3(C)OC2(C)C)C(C)(C)C1C(O)C=C1CCOC1=O (stereo not drawn) [Compound 61, saponaceolide H]",antiproliferative effects,A549,strong antiproliferative effects
same,antiproliferative effects,WISH,strong antiproliferative effects
same,antiproliferative effects,MCF-7 [3],strong antiproliferative effects
same,Bioactivities: Cytotoxic against human cancer cell lines,human cancer cell lines,Cytotoxic against human cancer cell lines
same,cytotoxicity rank,"human cancer cell lines; among 55, 56, 58, 60, 61, cell line not specified",most significant cytotoxicity
same,antiproliferative effects,Caki-1 [4],strong antiproliferative effects
same,antiproliferative effects,Hep G2 [5],strong antiproliferative effects
"CCC1(O)OCC(N2C(=O)CCC2OC)C2=C1C(OC)CC2OC(=O)CC(C)C (stereo not drawn) [Compound 84, pardinumone A]",Bioactivities: Antibacterial activity,bacteria,Antibacterial activity
"CC(C)C(C)C=CC(C)C1CCC2C3=CC(=O)OC3(O)CCC21C (stereo not drawn) [Compound 41, demethylincisterol A3]",IC50,MCF-7 [1],< 40 µM
same,IC50,HL-60,< 40 µM
same,IC50,SMMC-7721,< 40 µM
same,IC50,SW480,< 40 µM
same,Bioactivities: Anti-cancer activity,human tumor cell lines,Anti-cancer activity
same,IC50,A-549 [6],< 40 µM
"CC=C1OCC(NC(=O)CCC(N)C(=O)O)C2=C1C(OC)CC2OC(=O)CC(C)C (stereo not drawn) [Compound 86, pardinumone C]",Bioactivities: Antibacterial activity,bacteria,Antibacterial activity
"C=C1CCC(CC=C2CCC3(OC2)OC2(O)CCC3(C)OC2(C)C)C(C)(C)C1C(O)C=C1CCOC1=O (stereo not drawn) [Compound 55, saponaceolide T]",antiproliferative effects,A549,strong antiproliferative effects
same,antiproliferative effects,WISH,strong antiproliferative effects
same,antiproliferative effects,MCF-7 [3],strong antiproliferative effects
same,Bioactivities: Cytotoxic against human cancer cell lines,human cancer cell lines,Cytotoxic against human cancer cell lines
same,antiproliferative effects,Caki-1 [4],strong antiproliferative effects
same,antiproliferative effects,Hep G2 [5],strong antiproliferative effects
"COC(=O)C(NC(=O)CC(C)(O)CC(=O)OC1C(O)CC2(C)C3=C(CCC2C1(C)C)C1(C)CCC(C2CCC(C(C)(C)O)OC2O)C1(C)C(O)C3)C(OC(C)=O)c1ccccc1 (stereo not drawn) [Compound 8, pardinol H]",Bioactivities: Anti-inflammatory activity,[2],Anti-inflammatory activity
same,Bioactivities: Anti-cancer activity,human tumor cell lines,Anti-cancer activity
"COC(=O)C(Cc1ccccc1)NC(=O)CC(C)(O)CC(=O)OC1C(O)CC2(C)C3=C(CCC2C1(C)C)C1(C)CCC(C(C)CCC(O)C(C)(C)O)C1(C)C(O)C3 (stereo not drawn) [Compound 2, pardinol B]",IC50,MCF-7 [1],< 40 µM
same,Bioactivities: Anti-inflammatory activity,[2],Anti-inflammatory activity
same,IC50,HL-60,< 40 µM
same,IC50,SMMC-7721,< 40 µM
same,IC50,SW480,< 40 µM
same,Bioactivities: Anti-cancer activity,human tumor cell lines,Anti-cancer activity
same,IC50,A-549 [6],< 40 µM
"CC(C=CC(C)(O)C1CC(O)C2C3=CC(=O)OC3=CCC21C)C(C)(C)O (stereo not drawn) [Compound 49, tricholosterol D]",IC50,[2],31.8 µM
same,Bioactivities: Anti-inflammatory activity,[2],Anti-inflammatory activity
"CC(C)[C@@H](C)/C=C/[C@@H](C)[C@H]1CC(=O)C2=C3C(=O)C=C4C[C@@H](O)CC[C@]4(C)[C@H]3CC[C@@]21C [Compound 34, 3β-hydroxyl-(22E,24R)-ergosta-5,8(14),22-trien-7,15-dione]",Bioactivities: Anti-cancer activity,human tumor cell lines,Anti-cancer activity
"CC(C)[C@@H](C)/C=C/[C@@H](C)[C@H]1C[C@H](O)C2=C3C(=O)C=C4C[C@@H](O)CC[C@]4(C)[C@H]3CC[C@@]21C [Compound 32, 3β,15α-dihydroxyl-(22E,24R)-ergosta-5,8(14),22-trien-7-one]",IC50,MCF-7 [1],< 40 µM
same,IC50,HL-60,< 40 µM
same,IC50,SMMC-7721,< 40 µM
same,IC50,SW480,< 40 µM
same,Bioactivities: Anti-cancer activity,human tumor cell lines,Anti-cancer activity
same,IC50,A-549 [6],< 40 µM
"CC(C)C(C)C=CC(C)C1CCC2C3(O)C=CC4=CC(=O)CCC4(C)C3CCC12C (stereo not drawn) [Compound 26, isocyathisterol]",IC50,MCF-7 [1],< 40 µM
same,IC50,HL-60,< 40 µM
same,IC50,SMMC-7721,< 40 µM
same,IC50,SW480,< 40 µM
same,Bioactivities: Anti-cancer activity,human tumor cell lines,Anti-cancer activity
same,IC50,A-549 [6],< 40 µM
"CCC(=O)C1=C(C(COC(C)=O)NC(=O)CCC(N)C(=O)O)C(OC(=O)CC(C)C)CC1OC (stereo not drawn) [Compound 87, pardinumone D]",Bioactivities: Antibacterial activity,bacteria,Antibacterial activity
"C=C1CCC(CCC2CCC3(OC2)OC2(O)CCC3(C)OC2(C)C)C(C)(C)C1C(O)C=C1C(=O)OCC1O (stereo not drawn) [Compound 58, saponaceolide C]",antiproliferative effects,A549,strong antiproliferative effects
same,antiproliferative effects,WISH,strong antiproliferative effects
same,antiproliferative effects,MCF-7 [3],strong antiproliferative effects
same,Bioactivities: Cytotoxic against human cancer cell lines,human cancer cell lines,Cytotoxic against human cancer cell lines
same,antiproliferative effects,Caki-1 [4],strong antiproliferative effects
same,antiproliferative effects,Hep G2 [5],strong antiproliferative effects
"COC(=O)C(NC(=O)CC(C)(O)CC(=O)OC1C(O)CC2(C)C3=C(CCC2C1(C)C)C1(C)CCC(C2CCC(C(C)(C)O)OC2O)C1(C)C(O)C3)C(O)c1ccccc1 (stereo not drawn) [Compound 7, pardinol G]",Bioactivities: Anti-inflammatory activity,[2],Anti-inflammatory activity
same,Bioactivities: Anti-cancer activity,human tumor cell lines,Anti-cancer activity
"CC(C)[C@@H](C)/C=C/[C@@H](C)[C@H]1CC[C@H]2C3=C(CC[C@]12C)[C@@]1(C)CC[C@H](O)C[C@@]12O[C@H]2[C@@H]3O [Compound 35, 5α,6α-epoxy-(22E,24R)-ergosta-8,22-diene-3β,7β-diol]",Bioactivities: Anti-cancer activity,human tumor cell lines,Anti-cancer activity
"C=C1CCC(CC=C2CCC3(OC2)OC2(O)CCC3(C)OC2(C)C)C(C)(C)C1CC=C1CCOC1=O (stereo not drawn) [Compound 62, saponaceolide J]",inhibitory effects,MCF-7 [7],notable inhibitory effects
same,inhibitory effects,Caki-1 [8],notable inhibitory effects
same,inhibitory effects,Hep G2 [9],notable inhibitory effects
same,Bioactivities: Cytotoxic against human cancer cell lines,human cancer cell lines,Cytotoxic against human cancer cell lines
same,inhibitory effects,A-549 [10],notable inhibitory effects
"COC(=O)C(NC(=O)CC(C)(O)CC(=O)OC1CC2(C)C3=C(CCC2C(C)(C)C1O)C1(C)CCC(C(C)CCC(O)C(C)(C)O)C1(C)C(O)C3)C(OC(C)=O)c1ccccc1 (stereo not drawn) [Compound 5, pardinol E]",Bioactivities: Anti-inflammatory activity,[2],Anti-inflammatory activity
same,Bioactivities: Anti-cancer activity,human tumor cell lines,Anti-cancer activity
"C=C1CCC(CCC2CCC3(OC2)OC2(O)CCC3(C)OC2(C)C)C(C)(C)C1CC=C1CCOC1=O (stereo not drawn) [Compound 57, saponaceolide B]",inhibitory effects,MCF-7 [7],notable inhibitory effects
same,inhibitory effects,Caki-1 [8],notable inhibitory effects
same,inhibitory effects,Hep G2 [9],notable inhibitory effects
same,Bioactivities: Cytotoxic against human cancer cell lines,human cancer cell lines,Cytotoxic against human cancer cell lines
same,inhibitory effects,A-549 [10],notable inhibitory effects
"C=C1CC[C@@H](CCO)C(C)(C)[C@H]1C/C=C1/C(=O)OC[C@@H]1O [Compound 70, tricholopardin B]",IC50,[2],16.2 µM
same,Bioactivities: Anti-inflammatory activity,[2],Anti-inflammatory activity
